Tested on: C57BL6 mice
Experiment: Intratumoral injection of luciferase mRNA LNP, fluorescence of tumor and liver
Assay type: in vivo
Conditions: luciferase mRNA LNP 25 μL/2.5 μg intratumoral, B 16F 10 tumor in C57BL6 mice, imaging after 24 h (FIGS. 6 and 7)
Method: Different types of lipid nanoparticles encapsulating luciferase mRNA in were prepared accordance with the preparation of Example 20. Tumors were injected subcutaneously in the right abdomen of 6-8 week female C57BL6 mice at 5×10^5 B 16F 10 cells (from CAS Cell Bank, CSTR:19375.09.3101MOUTCM36)/mouse, and tumor growth was observed and recorded periodically. On the 8th day after tumor inoculation, the length (L, mm) and width (D, mm) of the tumors were measured by using a vernier caliper, and the tumor volume (V) was calculated according to the formula V=(L×D^2)/2. Mice with tumor volume in the range of 80-120 mm^3 were taken and randomly grouped, and intratumorally injected with different types of lipid nanoparticles encapsulating luciferase mRNA at the volume of 25 μL/2.5 μg. Anatomical imaging was performed after 24 h to detect the fluorescence intensity of the mouse liver and tumor (as shown in FIGS. 6 and 7). […] This indicates better in situ tumor expression and lower liver […], which is suitable for encapsulation and delivery of some tumor therapy-related nucleic acid drugs.

CCCCCCCCSCC(C)C(=O)OCCCCCN(CCO)CCCCCCCC(=O)OC(CCCCCCCC)CCCCCCCC (centres unmarked) [Compound 35]
brightness (fluorescence intensity) at the tumor: higher brightness at the tumor
brightness (fluorescence intensity) in the liver: lower brightness in the liver
